Experiment: in vitro
Conditions: human, hela cells, % viability

SMILES	viability at 28.5 h, 10 µM [%]
CN1CCCN(c2cncc(-c3ccc(F)cc3F)n2)CC1 [CBK065858]	97.9
Cc1c(CNC2(c3ccccc3F)CCCC2)c(=O)n(C)c(=O)n1C [CBK282986]	85.1
CN1CCN(C(=O)CNS(=O)(=O)c2ccc3ccccc3c2)CC1 [CBK042205]	99.3
CCC(=O)Nc1ccc(-c2csc(N3CCC(C)CC3)n2)cc1 [CBK306490]	111
CC(C)CNc1nc(-c2cc(C(F)(F)F)cc(C(F)(F)F)c2)cnc1N [CBK063708]	85.7
CCOC(=O)c1c(-c2ccc(C)o2)csc1NC(=O)CN1CCCCC1C (centres unmarked) [CBK265917]	105
CCOC(=O)N1CCC(NC(=O)CCC(=O)O)CC1 [CBK286569]	91.5
Cc1oc(CSc2nnc(NCc3ccc(F)cc3)s2)cc1C(=O)O [CBK296629]	91.6
Cc1ccc(OCC(O)CN2CCN(c3ccccn3)CC2)cc1C (centres unmarked) [CBK058884]	86.9
Cc1nnc([C@H]2CCN(Cc3ccc4c(c3)OCO4)C2)o1 [CBK289392]	111
Cc1nnc(SCCCNC(=O)C2CC(=O)N(Cc3ccccn3)C2)s1 (centres unmarked) [CBK307529]	101
COc1ccc(CCc2nc(C(F)(F)F)cc(=O)[nH]2)cc1 [CBK003679]	87.3
Oc1ccccc1CN1CCN(Cc2ccccc2O)C1c1ccccc1Br [CBK262050]	98.1
CC1CN(C(=O)NC(=O)c2ccc(-c3csnn3)cc2)CC(C)O1 (centres unmarked) [CBK017091]	87.7
COc1ccc(-c2cnc(N)nc2C2CCCN(C(=O)CCCc3ccccc3)C2)cc1 (centres unmarked) [CBK286091]	94.4
Cc1nc2n(n1)C(c1ccccn1)C1=C(CC(C)CC1=O)N2 (centres unmarked) [CBK288230]	82.9
COc1cc(C2CC(=O)Nc3nc(N)[nH]c(=O)c32)ccc1OCc1ccc(F)cc1 (centres unmarked) [CBK293980]	84.8
CN1C=NC2C1C(=O)N(CCn1c(=O)c3c(ncn3C)n(C)c1=O)C(=O)N2C (centres unmarked) [CBK268678]	101
O=C(O)c1cccc(-n2c(S)nnc2-c2ccc3ccccc3n2)c1 [CBK265810]	103
COCCC(=O)N1C2CCC(C2)[C@@H]1COc1ccc(F)cc1 (some centres unmarked) [CBK284604]	96
CC(C)(C)c1csc(Nc2nc3cc4c(cc3s2)OCO4)n1 [CBK287491]	93.9
O=C(O)C1CCC(N2C(=O)C3C4CCC(C4)C3C2=O)CC1 (centres unmarked) [CBK287183]	82.2

SMILES	viability at 28.5 h, 10 µM [%]
CCN(CC)C(=O)Cn1nc2c(C)cc3ccccc3n2c1=O [CBK283879]	84.1
COc1ccc(S(=O)(=O)N(C)CC(=O)Nc2ccc(C(N)=O)cc2)cc1C [CBK267278]	88
COc1ccccc1-c1cc2c(=O)n(C)c(-c3ccc(CNC(C)C)cc3)cc2o1 [CBK051699C]	84.5
CC(NC(=O)CSc1nnc(-c2ccc(Cl)cc2)n1-c1ccccc1)c1ccccc1 (centres unmarked) [CBK264993]	87
Cc1cc(C[C@@H]2COC[C@H]2NCC(C)c2ccccc2)on1 (some centres unmarked) [CBK285145]	88.5
OCCN(Cc1ccncc1)CC1(c2ccc(Cl)cc2)CC1 [CBK282782]	90.7
CC(NC(=S)Nc1ccc(S(N)(=O)=O)cc1)c1ccncc1 (centres unmarked) [CBK267073]	111
Cc1nc([N+](=O)[O-])c(C(=O)OCc2ccccc2C#N)n1C [CBK293991]	82.1
O=C(Nc1ccccc1C(=O)Nc1ccccc1C(=O)O)c1ccccc1 [CBK261551]	91.1
CCCN1CCC(N(C)CCN(CC)CC)CC1 [CBK261935]	104
Cc1nc2c(c(=O)[nH]1)CCN(Cc1c(C)oc3ccccc13)C2 [CBK283994]	87.8
Cn1c(CO)nnc1[C@H]1C[C@@H](NC(=O)COc2ccc(Cl)c(Cl)c2)C1 [CBK306667]	101
COc1ccc(NC(=O)NC(=O)c2ccc(Cl)cc2)c(OC)c1 [CBK269462]	93.1
c1ccc2oc(SCCCCSc3nc4ccccc4o3)nc2c1 [CBK025465]	97.7
CC(=O)[C@H]1C[C@@H](CC(=O)Nc2ccc(Cl)nc2)C1(C)C [CBK091338]	97.7
Cc1ccc2nc(-c3ccc(-c4ccc(C(C)C)cc4)o3)cc(C(=O)O)c2c1 [CBK300083]	96.7
Cc1ccccc1C(=O)N/N=C/c1ccc(Sc2nnnn2-c2ccccc2)o1 [CBK263259]	114
O=c1[nH]c2ncc(-c3cccc4cccnc34)nc2n1Cc1cccnc1 [CBK064305]	58.9
O=C(c1cccs1)N1CCC(n2c(=O)oc3ccccc32)CC1 [CBK284347]	88.2
Cc1cc(NCc2ccccc2)nc2[nH]nc(N)c12 [CBK287931]	87.7
Cc1cc(-c2ccc(=O)n(CCNC(=O)c3cccs3)n2)c(C)o1 [CBK284461]	92.3
O=C(c1cc(S(=O)(=O)NCc2ccco2)c(Cl)cc1Cl)N1CCC1 [CBK305004]	98

SMILES	viability at 28.5 h, 10 µM [%]
CCN(CC(=O)NC(C)C)Cc1csc(-c2ccc(F)cc2)n1 [CBK305849]	117
COc1ccc2c(c1)OC1(CCN(CC(O)c3ccc(-c4ccccc4)cc3)CC1)CC2O (centres unmarked) [CBK286346]	91.2
CN(C)CCN(C)c1cncc(-c2cccc(N(C)C)c2)n1 [CBK065659]	100
COc1ccc(Br)cc1S(=O)(=O)Nc1cccc(C(=O)Nc2ccc(F)cc2)c1 [CBK038981]	75.4
CC(C)NC(=O)N1CCN2C(=O)c3cc(-c4ccc(Cl)cc4)ccc3NC(=O)[C@H]2C1 [CBK289596]	79.5
COc1ccc2[nH]cc(C(C(=O)O)N3CCN(Cc4ccccn4)CC3)c2c1 (centres unmarked) [CBK286846]	80.5
COC(=O)Cc1ccc(NC(=S)Nc2ccc(N3CCOCC3)cc2)cc1 [CBK267211]	87.4
COc1ccc(-c2nnc(SCC(=O)Nc3cc(C(C)(C)C)no3)n2C2CCCCC2)cc1OC [CBK295131]	105
Cc1nnc2n1CCN(CC1CCCCO1)C2 (centres unmarked) [CBK304267]	105
CCC(=O)N1CCC2(CC1)Nc1ccccc1-n1cccc12 [CBK283488]	108
CC(C)(CN)CN(Cc1ccc(Cl)cc1Cl)C(=O)NCCc1c[nH]c2ccccc12 [CBK000460C]	89.4
CC(C)NC(=O)N[C@H]1CCN2C(=O)N(c3ccc(F)c(Cl)c3)C(=O)[C@@H]2C1 [CBK289540]	83.1
CN(C(=O)c1cccnc1)C(CC1CCCCC1)C1CCCCC1 (centres unmarked) [CBK015849]	99.1
CN1CCC[C@H]1c1nc(-c2ccnc(NS(C)(=O)=O)c2)no1 [CBK288884]	86.8
CCc1nc(CC(=O)NC(c2ccc(F)cc2)C2CCCO2)cs1 (centres unmarked) [CBK306336]	117
CNS(=O)(=O)c1cc(C(=O)O)ccc1OC [CBK270179]	104
CCNC(=O)N1CC2(CCN(CCCC#N)CC2)c2ccccc21 [CBK136970]	111
Oc1cc(-c2ccccc2Cl)[nH]n1 [CBK074226]	95.6
O=C(CCN1CCN(CCO)CC1)Nc1ccc2c(c1)CCC2 [CBK264262C]	93.2
COc1cc(C(=O)NN)cc(OC)n1 [CBK012275]	83.7
CN(Cc1ccccc1)S(=O)(=O)c1ccc(OCC(=O)O)cc1 [CBK276426]	97.9
O=C(O)CCc1ccc(-c2ccccc2)n1CC1CCCO1 (centres unmarked) [CBK267955]	102

SMILES	viability at 28.5 h, 10 µM [%]
CCc1nn(CC(=O)N2CCCCC2)c(=O)c2cc3oc(C)cc3n12 [CBK283575]	104
N#Cc1ccc(C(=O)N2C[C@@H]3C[C@H](C2)c2c(-c4cccc(C#N)c4)ccc(=O)n2C3)cc1 [CBK289196]	104
CCOC(=O)c1c(-c2ccc(Cl)cc2)csc1NC(=O)CCCC(=O)O [CBK296929]	91
OCC1CCCN1c1cncc(-c2ccc3ccccc3c2)n1 (centres unmarked) [CBK037197]	104
Cc1cccnc1CN1CCN(C(=O)NCCSc2nncn2C)CC1 [CBK306949]	89.9
CCOCCCNC(=O)C1CCN(c2cccc(F)c2C#N)CC1 [CBK306341]	91.9
FC(F)(F)c1ccc(OCCN2CCNCC2)nc1 [CBK113462]	110
COc1cccc(C2(NC(=O)CCn3cccn3)CCCC2)c1 [CBK283660]	94.5
Cc1ccnc(NCC2CCN(c3ccc4nnnn4n3)C2)c1 (centres unmarked) [CBK306348]	57.3
OCCN(Cc1cccnc1)Cc1cccn1Cc1ccccc1F [CBK282945]	93.5
COc1ccc(Cc2nc(-c3ccccc3)c3ccccc3n2)cc1F [CBK291176]	80.2
OC(COCc1ccco1)CN1CCc2sccc2C1C1CC1 (centres unmarked) [CBK305167]	119
CCOc1cccc(-c2cncc(NCc3cccs3)n2)c1 [CBK066034]	104
O=[N+]([O-])c1ccccc1CN1CCN(C/C=C/c2ccccc2)CC1 [CBK261518]	87.1
CC1=C[C@@H](CNC(=O)Nc2ccccc2)[C@H](C(C)C)C[C@H]1CC(=O)N1CCN(C)CC1 [CBK289048]	121
O=C(O)C1(Cc2ccc(-c3ccccc3)cc2)CCNC1 (centres unmarked) [CBK281687]	91.2
C=CCN(CC=C)Cc1c(C)nc2ccc(CC)cc2c1O [CBK264998]	92.6
CC(C)(C)c1ccc(S(=O)(=O)N2CCNC(=O)C2)cc1 [CBK051238]	88.9
Cc1ccc(S(=O)(=O)c2cc3c(=O)n4ccccc4nc3n(CCCN3CCOCC3)c2=N)cc1 [CBK265590]	101
CSCCC(=O)Nc1cc(C)nc2ccccc12 [CBK122729]	108
COc1cc([N+](=O)[O-])ccc1NC(=O)NCc1ccco1 [CBK266855]	101

Same assay, conditions: human, hela cells, % viability, bulk resorufin, single well

SMILES	viability at 28.5 h, 10 µM [%]
CC(=O)N1CCC2(CC1)OCc1cc(-c3ccc(CCC(=O)O)cc3)ccc1O2 [CBK060971]	90.3
Cc1ccc(N2C(=O)/C(=C/c3ccc(OCC(=O)O)c(Cl)c3)C(=O)NC2=S)c(C)c1 [CBK264043]	109
